In patent publication US20250347692A1, “METHOD FOR DETERMINING THE RESPONSE TO METHOTREXATE (MTX) IN A HUMAN SUBJECT DIAGNOSED WITH RHEUMATOID ARTHRITIS” (BIOHOPE SCIENTIFIC SOLUTIONS FOR HUMAN HEALTH, S.L, priority 2022, published 2025):

Tested on: PBMCs from naïve RA patients
Assay: ROS TEST: ROS production of PHA-activated PBMCs exposed to MTX, fluorimetry
Assay type: cell-based, human
Settings: PBMCs of naïve RA patients with clinical remission at 6 months of methotrexate (n=17) versus those without (n=8), E. coli stimulated, ANOVA p 0.0003
Excerpt: Therefore, the decision was made to investigate a model of in vitro exposure of RA patients' cells to MTX and the measurement of its direct effect as a pharmacodynamic biomarker of response. […] Therefore, the hypothesis is that treatment of PBMCs with the drug methotrexate causes an increase in reactive oxygen species (ROS) production due to increased apoptosis in T lymphocytes in responder patients. […] Based on the above, in the present example the above two assays will be carried out using PBMCs obtained or isolated from RA patients. Briefly, first, a peripheral blood draw is performed from a rheumatoid arthritis patient who meets the inclusion criteria indicated below in the “Methodology” section, and peripheral blood mononuclear cells (PBMCs) are isolated by density gradient. These PBMCs are frozen and maintained in liquid nitrogen for a time period of at least two weeks. After this time, the PBMCs are thawed and incubated in a flat-bottomed p96 plate at 37° C. and 5% CO2 for 24 hours. The next day, phytohemagglutinin (PHA) and MTX are added to the corresponding wells and the plate is incubated for 48 hours. Finally, the probes corresponding to each test are added: • ROS test: ROS probe+E. coli • MONOCYTE test: resazurin Both tests were carried out on the same plate, read at Ex/Em 535/610 wavelengths, in a fluorescence reader.

**Q.** `CN(Cc1cnc2nc(N)nc(N)c2n1)c1ccc(C(=O)N[C@@H](CCC(=O)O)C(=O)O)cc1` [MTX, methotrexate] was tested. Which “ROS production levels (fluorescence units) after exposure of PBMCs to MTX” value did it give?
**A.** The value was “significantly increased”.
